Reference: PubChem BioAssay (NCI)
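Assay format: 96-well plates, 48-hour exposure. The concentration for full growth arrest is given as TGI.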

Columns and labels:
Test in all cases: NCI tumour cell line growth inhibition, 48 h
[1] = test system: TK-10 renal
[2] = test system: HCT-15 colon
[3] = test system: OVCAR-4 ovarian
[4] = test system: HCC-2998 colon
[5] = test system: 786-0 renal
[6] = test system: RPMI-8226 leukemia
[7] = test system: MDA-N
[8] = test system: A549 NSCLC
[9] = test system: RXF 393 renal
[10] = test system: U251 CNS
[11] = test system: KM12 colon

SMILES | TGI [1] | TGI [2] | TGI [3] | TGI [4] | TGI [5] | TGI [6] | TGI [7] | TGI [8] | TGI [9] | TGI [10] | TGI [11]
S=c1ncc(-c2cncc(-c3cnc(=S)[nH]c3)n2)c[nH]1 | > 100 µM | > 100 µM | > 100 µM | > 100 µM | > 100 µM | > 100 µM | > 100 µM | > 100 µM | > 100 µM | > 100 µM | > 100 µM
Cc1nn2c(=O)c([N+](=O)[O-])c(/C=C/c3ccc(F)cc3)nc2s1 | 20.7 µM | 16.5 µM | 19.5 µM | 16.4 µM | 20.9 µM | 19.7 µM | 15.8 µM | 24.3 µM | 10.7 µM | 14.6 µM | 16.3 µM
CC(=O)O[C@H]1[C@@H](N2CCOCC2)C[C@H]2[C@@H]3CC=C4C[C@@H](N5CCCC5)CC[C@]4(C)[C@H]3CC[C@@]21C | > 100 µM | > 100 µM | > 100 µM | > 100 µM | > 100 µM | > 100 µM | > 100 µM | > 100 µM | > 100 µM | > 100 µM | > 100 µM
CCCOC(=O)c1cc(O)c(O)c(O)c1 | > 100 µM | > 100 µM | > 100 µM | > 100 µM | > 100 µM | > 100 µM | 76.9 µM | > 100 µM | > 100 µM | > 100 µM | > 100 µM
CC1(C)N=C(C(N)=O)c2[nH]cnc2N1 | > 100 µM | > 100 µM | > 100 µM | > 100 µM | > 100 µM | > 100 µM | > 100 µM | > 100 µM | > 100 µM | > 100 µM | > 100 µM
NC1=Nc2cc(C(F)(F)F)ccc2Sc2nc3ccccc3n21 | > 100 µM | > 100 µM | > 100 µM | > 100 µM | > 28.6 µM | > 100 µM | > 100 µM | > 100 µM | > 100 µM | > 100 µM | > 100 µM
NCCCN(CCCCN(CCCN)CCCc1ccccc1)CCCc1ccccc1 | 25.9 µM | 4.24 µM | 17.1 µM | 2.99 µM | 2.91 µM | 6.15 µM | 3.23 µM | 9.49 µM | 5.64 µM | 4.19 µM | 6.43 µM
CCOP1(=O)CC(C)=C(Cl)C(OC)C1 (stereo unspecified) | > 100 µM | > 100 µM | > 100 µM | > 100 µM | > 100 µM | > 100 µM | > 100 µM | > 100 µM | > 100 µM | > 100 µM | > 100 µM
COC(=O)CN1CCN(c2cccc3c2CCCC3)CC1 | > 100 µM | > 100 µM | > 100 µM | 85.3 µM | > 100 µM | 85.8 µM | > 100 µM | > 100 µM | > 100 µM | > 100 µM | > 100 µM
O=C1c2cc3c(cc2NC(c2ccccc2F)C1O)OCO3 (stereo unspecified) | 73.1 µM | > 100 µM | > 84.9 µM | > 75.1 µM | 48.1 µM | > 100 µM | 8.29 µM | > 63.1 µM | > 64.9 µM | > 68 µM | > 100 µM
CN(C)S(=O)(=O)c1ccc2[nH]c(O)c(C3=Nc4ccccc4C3=O)c2c1 | 40 µM | > 100 µM | > 100 µM | > 100 µM | 50.3 µM | > 100 µM | > 100 µM | > 100 µM | 14.2 µM | 24.9 µM | > 100 µM
O=C(/C=C/c1ccc(-c2ccccc2)cc1)NCc1ccc(C(=O)NCCc2ccccc2)cc1 | > 100 µM | > 100 µM | > 100 µM | > 100 µM | > 100 µM | > 100 µM | > 100 µM | > 100 µM | 94.9 µM | > 100 µM | > 100 µM
C[N+]1(C)CCCC(C#N)(c2ccccc2)CC1 (stereo unspecified) | > 100 µM | > 100 µM | > 100 µM | > 100 µM | > 100 µM | > 100 µM | > 100 µM | > 100 µM | > 100 µM | > 100 µM | > 100 µM
CCOC(=O)C(C)c1nc2cc(F)c(F)cc2[nH]c1=O (stereo unspecified) | > 100 µM | > 100 µM | > 100 µM | > 100 µM | > 100 µM | > 100 µM | > 100 µM | > 100 µM | > 100 µM | > 100 µM | > 100 µM
Nc1nc(Cl)c(CO)c(NCC2(CO)CCC2)n1 | > 100 µM | > 100 µM | > 100 µM | > 100 µM | > 100 µM | > 100 µM | > 100 µM | > 100 µM | > 100 µM | > 100 µM | > 100 µM
CC(=O)c1csc2c1C(=O)c1ccccc1C2=O | 4.99 µM | 10.3 µM | 18.3 µM | 3.2 µM | > 22.3 µM | 89.9 µM | 4.21 µM | 4.06 µM | 26.7 µM | 13.9 µM | 3.68 µM
